# Experimental data: patent US9695155B2, “Herbicidal substituted pyrimidinyloxy benzene compounds” (E. I. DU PONT DE NEMOURS AND COMPANY, priority 2013, dated 2017)
# Columns and labels:
# soybean = assay: Test C postemergence; assay type: in vivo, Glycine max; conditions: for Plant response rating (0 to 100), Soybean: 125 g ai/ha, postemergence; for Plant response rating, Soybean: Postemergence, scale 0 to 100 (0 no effect, 100 complete control)
# In short: (§1)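 Seeds were sown in loam–sand blend and sprayed preemergence, while plants at 1- to 4-leaf stage (2–18 cm) in peat-based medium received postemergence sprays; test chemicals were formulated in a non-phytotoxic solvent with surfactant. After 13–15 days in a greenhouse, injury was rated visually against controls, 0 (no effect) to 100 (complete control).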
# giant foxtail [1] = assay: Test A postemergence; assay type: in vivo, Setaria faberii; conditions: 0 to 100 scale where 0 is no effect and 100 is complete control
# In short: (§2)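 Visual 0–100 rating (100 = complete control) taken about 10 d post-treatment relative to untreated checks. Preemergence: directed soil spray on sown loam/sand pots. Postemergence: seedlings 2–10 cm, 1–2 leaf. Non-phytotoxic solvent formulation with surfactant.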
# velvetleaf [2] = assay: Test A preemergence; assay type: in vivo, Abutilon theophrasti; conditions: 125 g ai/ha, 0 to 100 scale where 0 is no effect and 100 is complete control
# In short: as §2
# large (Lg) crabgrass [3] = assay: Test A preemergence; assay type: in vivo, Digitaria sanguinalis; conditions: for Plant response rating, Crabgrass, Large: 125 g ai/ha, 0 to 100 scale where 0 is no effect and 100 is complete control; for Crabgrass, Large plant response rating: 500 g ai/ha, 0 to 100 scale, 0 no effect, 100 complete control, approx. 10 days
# In short: as §2
# ragweed = assay: Test C postemergence; assay type: in vivo, Ambrosia elatior; conditions: for Plant response rating (0 to 100), Ragweed: 125 g ai/ha, postemergence; for Plant response rating, Ragweed: Postemergence, scale 0 to 100 (0 no effect, 100 complete control)
# In short: as §1
# velvetleaf [4] = assay: Test C postemergence; assay type: in vivo, Abutilon theophrasti; conditions: for Plant response rating (0 to 100), Velvetleaf: 125 g ai/ha, postemergence; for Plant response rating, Velvetleaf: Postemergence, scale 0 to 100 (0 no effect, 100 complete control)
# In short: as §1
# wheat, winter = assay: Test C postemergence; assay type: in vivo, Triticum aestivum; conditions: for Plant response rating (0 to 100), Wheat: 125 g ai/ha, postemergence; for Plant response rating, Wheat: Postemergence, scale 0 to 100 (0 no effect, 100 complete control)
# In short: as §1
# pigweed [5] = assay: Test A preemergence; assay type: in vivo, Amaranthus retroflexus; conditions: for Plant response rating, Pigweed: 125 g ai/ha, 0 to 100 scale where 0 is no effect and 100 is complete control; for Pigweed plant response rating: 500 g ai/ha, 0 to 100 scale, 0 no effect, 100 complete control, approx. 10 days
# In short: as §2
# chickweed = assay: Test C postemergence; assay type: in vivo, Stellaria media; conditions: for Chickweed plant response rating: 16 g ai/ha, visual rating; for Chickweed plant response rating / Plant response rating (0 to 100), Chickweed: postemergence; for Chickweed plant response rating / Plant response rating, Chickweed: scale 0 to 100 (0 no effect, 100 complete control); for Plant response rating (0 to 100), Chickweed: 125 g ai/ha; for Plant response rating, Chickweed: Postemergence
# In short: as §1
# pigweed [6] = assay: Test A postemergence; assay type: in vivo, Amaranthus retroflexus; conditions: 0 to 100 scale where 0 is no effect and 100 is complete control
# In short: as §2
# giant foxtail [7] = assay: Test A preemergence; assay type: in vivo, Setaria faberii; conditions: for Plant response rating, Foxtail, Giant: 125 g ai/ha, 0 to 100 scale where 0 is no effect and 100 is complete control; for Foxtail, Giant plant response rating: 500 g ai/ha, 0 to 100 scale, 0 no effect, 100 complete control, approx. 10 days
# In short: as §2
# velvetleaf [8] = assay: Test A postemergence; assay type: in vivo, Abutilon theophrasti; conditions: 0 to 100 scale where 0 is no effect and 100 is complete control
# In short: as §2
# wild oat = assay: Test C postemergence; assay type: in vivo, Avena fatua; conditions: for Plant response rating (0 to 100), Oat, Wild: 125 g ai/ha, postemergence; for Plant response rating, Oat, Wild: Postemergence, scale 0 to 100 (0 no effect, 100 complete control)
# In short: as §1
# giant foxtail [9] = assay: Test C postemergence; assay type: in vivo, Setaria faberii; conditions: for Foxtail, Giant plant response rating: 16 g ai/ha, visual rating; for Foxtail, Giant plant response rating / Plant response rating (0 to 100), Foxtail, Giant: postemergence; for Foxtail, Giant plant response rating / Plant response rating, Foxtail, Giant: scale 0 to 100 (0 no effect, 100 complete control); for Plant response rating (0 to 100), Foxtail, Giant: 125 g ai/ha; for Plant response rating, Foxtail, Giant: Postemergence
# In short: as §1
# large (Lg) crabgrass [10] = assay: Test A postemergence; assay type: in vivo, Digitaria sanguinalis; conditions: 0 to 100 scale where 0 is no effect and 100 is complete control
# In short: as §2
smiles,measurement,setting,value
Fc1cnc(Oc2cccc(C(F)F)c2-n2cc(Cl)cn2)nc1 [Compound 94],"Plant response rating (0 to 100), Soybean",soybean,80
same,"Plant response rating, Soybean","soybean; 31 g ai/ha, 13 to 15 days",45
same,"Plant response rating, Soybean",soybean; 62 g ai/ha,85
same,"Plant response rating, Foxtail, Giant",giant foxtail [1]; 125 g ai/ha,70
same,"Plant response rating, Foxtail, Giant",giant foxtail [1]; 500 g ai/ha,90
same,"Plant response rating, Velvetleaf",velvetleaf [2],90
same,"Plant response rating, Crabgrass, Large",large (Lg) crabgrass [3],100
same,"Crabgrass, Large plant response rating",large (Lg) crabgrass [3],100
same,"Plant response rating (0 to 100), Ragweed",ragweed,45
same,"Plant response rating, Ragweed","ragweed; 31 g ai/ha, 13 to 15 days",15
same,"Plant response rating, Ragweed",ragweed; 62 g ai/ha,55
same,"Plant response rating (0 to 100), Velvetleaf",velvetleaf [4],40
same,"Plant response rating, Velvetleaf","velvetleaf [4]; 31 g ai/ha, 13 to 15 days",20
same,"Plant response rating, Velvetleaf",velvetleaf [4]; 62 g ai/ha,65
same,"Plant response rating (0 to 100), Wheat","wheat, winter",0
same,"Plant response rating, Wheat","wheat, winter; 31 g ai/ha, 13 to 15 days",0
same,"Plant response rating, Wheat","wheat, winter; 62 g ai/ha",0
same,"Plant response rating, Pigweed",pigweed [5],100
same,Pigweed plant response rating,pigweed [5],100
same,Chickweed plant response rating,chickweed; 13 to 15 days,10
same,"Plant response rating (0 to 100), Chickweed",chickweed,70
same,"Plant response rating, Chickweed","chickweed; 31 g ai/ha, 13 to 15 days",60
same,"Plant response rating, Chickweed",chickweed; 62 g ai/ha,60
same,"Plant response rating, Pigweed",pigweed [6]; 125 g ai/ha,100
same,"Plant response rating, Pigweed",pigweed [6]; 500 g ai/ha,100
same,"Plant response rating, Foxtail, Giant",giant foxtail [7],100
same,"Foxtail, Giant plant response rating",giant foxtail [7],100
same,"Plant response rating, Velvetleaf",velvetleaf [8]; 125 g ai/ha,90
same,"Plant response rating, Velvetleaf",velvetleaf [8]; 500 g ai/ha,100
same,"Plant response rating (0 to 100), Oat, Wild",wild oat,5
same,"Plant response rating, Oat, Wild","wild oat; 31 g ai/ha, 13 to 15 days",0
same,"Plant response rating, Oat, Wild",wild oat; 62 g ai/ha,0
same,"Foxtail, Giant plant response rating",giant foxtail [9]; 13 to 15 days,10
same,"Plant response rating (0 to 100), Foxtail, Giant",giant foxtail [9],10
same,"Plant response rating, Foxtail, Giant","giant foxtail [9]; 31 g ai/ha, 13 to 15 days",10
same,"Plant response rating, Foxtail, Giant",giant foxtail [9]; 62 g ai/ha,10
same,"Plant response rating, Crabgrass, Large",large (Lg) crabgrass [10]; 125 g ai/ha,50
same,"Plant response rating, Crabgrass, Large",large (Lg) crabgrass [10]; 500 g ai/ha,90
N#Cc1cccc(Oc2ncc(Cl)cn2)c1-n1cc(OC(F)F)cn1 [Compound 97],"Plant response rating (0 to 100), Soybean",soybean,95
same,"Plant response rating, Soybean","soybean; 31 g ai/ha, 13 to 15 days",60
same,"Plant response rating, Soybean",soybean; 62 g ai/ha,90
same,"Plant response rating, Foxtail, Giant",giant foxtail [1]; 125 g ai/ha,90
same,"Plant response rating, Foxtail, Giant",giant foxtail [1]; 500 g ai/ha,90
same,"Plant response rating, Velvetleaf",velvetleaf [2],100
same,"Plant response rating, Crabgrass, Large",large (Lg) crabgrass [3],100
same,"Crabgrass, Large plant response rating",large (Lg) crabgrass [3],100
same,"Plant response rating (0 to 100), Ragweed",ragweed,70
same,"Plant response rating, Ragweed","ragweed; 31 g ai/ha, 13 to 15 days",40
same,"Plant response rating, Ragweed",ragweed; 62 g ai/ha,60
same,"Plant response rating (0 to 100), Velvetleaf",velvetleaf [4],70
same,"Plant response rating, Velvetleaf","velvetleaf [4]; 31 g ai/ha, 13 to 15 days",40
same,"Plant response rating, Velvetleaf",velvetleaf [4]; 62 g ai/ha,75
same,"Plant response rating (0 to 100), Wheat","wheat, winter",10
same,"Plant response rating, Wheat","wheat, winter; 31 g ai/ha, 13 to 15 days",5
same,"Plant response rating, Wheat","wheat, winter; 62 g ai/ha",5
same,"Plant response rating, Pigweed",pigweed [5],100
same,Pigweed plant response rating,pigweed [5],100
same,Chickweed plant response rating,chickweed; 13 to 15 days,70
same,"Plant response rating (0 to 100), Chickweed",chickweed,90
same,"Plant response rating, Chickweed","chickweed; 31 g ai/ha, 13 to 15 days",60
same,"Plant response rating, Chickweed",chickweed; 62 g ai/ha,80
same,"Plant response rating, Pigweed",pigweed [6]; 125 g ai/ha,100
same,"Plant response rating, Pigweed",pigweed [6]; 500 g ai/ha,100
same,"Plant response rating, Foxtail, Giant",giant foxtail [7],100
same,"Foxtail, Giant plant response rating",giant foxtail [7],100
same,"Plant response rating, Velvetleaf",velvetleaf [8]; 125 g ai/ha,100
same,"Plant response rating, Velvetleaf",velvetleaf [8]; 500 g ai/ha,100
same,"Plant response rating (0 to 100), Oat, Wild",wild oat,25
same,"Plant response rating, Oat, Wild","wild oat; 31 g ai/ha, 13 to 15 days",10
same,"Plant response rating, Oat, Wild",wild oat; 62 g ai/ha,15
same,"Foxtail, Giant plant response rating",giant foxtail [9]; 13 to 15 days,10
same,"Plant response rating (0 to 100), Foxtail, Giant",giant foxtail [9],15
same,"Plant response rating, Foxtail, Giant","giant foxtail [9]; 31 g ai/ha, 13 to 15 days",5
same,"Plant response rating, Foxtail, Giant",giant foxtail [9]; 62 g ai/ha,10
same,"Plant response rating, Crabgrass, Large",large (Lg) crabgrass [10]; 125 g ai/ha,90
same,"Plant response rating, Crabgrass, Large",large (Lg) crabgrass [10]; 500 g ai/ha,100
